Species: Rattus norvegicus
Assay: Open TG-GATES - Regimen: Single
Format: toxicity, organism-based, Sprague-Dawley
Design: regimen Single, gender Male, age 6 weeks
Details: in vivo, po, 2 mg/kg, route gavage, dose level Low; for APTT / Bas / Eos / Fbg / Hb / Lym / MCH / MCHC / MCV / Mono / Neu / PT / Plat / RBC / Ret / WBC: tissue Blood; for KIDNEY_L / KIDNEY_R / KIDNEY_TOTAL: tissue Kidney; for LIVER: tissue Liver; for ALP / ALT / AST / BUN / CRE / Ca / Cl / DBIL / GLC / IP / K / LDH / Na / PL / RALB / TBIL / TC / TG / TP / gamma-GTP: tissue Plasma

In the case of `OCCN1CCN(CCCN2c3ccccc3Sc3ccc(C(F)(F)F)cc32)CC1` [FLUPHENAZINE], the TERMINAL_BW (3 h) is reported as 193.4 g, the APTT (3 h) is reported as 16.5 s and the Bas (3 h) is reported as 0%. It also gave an Eos (3 h) of 0.8%, a Fbg (3 h) of 231.2 mg/dL and a Hb (3 h) of 13.2 g/dL. For the same molecule, the Lym (3 h) was 76.6%, the MCH (3 h) was 21.9 pg and the MCHC (3 h) was 33.2%. The MCV (3 h) was 65.9 fL, the Mono (3 h) was 8.2% and the Neu (3 h) was 14.6%. The PT (3 h) was 12.5 s, the Plat (3 h) was 111 x10_4/uL and the RBC (3 h) was 605.2 x10_4/ul. It also gave a Ret (3 h) of 7.9%, a WBC (3 h) of 105.8 x10_2/uL and a KIDNEY_L (3 h) of 0.9 g. The KIDNEY_R (3 h) was 0.9 g, the KIDNEY_TOTAL (3 h) was 1.8 g and the LIVER (3 h) was 8.9 g. The ALP (3 h) was 678.4 IU/L, the ALT (3 h) was 29.6 IU/L and the AST (3 h) was 56.4 IU/L. It also gave a BUN (3 h) of 10.8 mg/dL, a CRE (3 h) of 0.5 mg/dL and a Ca (3 h) of 10.5 mg/dL. For the same molecule, the Cl (3 h) was 105.2 meq/L, the DBIL (3 h) was 0.012 mg/dL and the GLC (3 h) was 193.4 mg/dL. The IP (3 h) was 10.4 mg/dL, the K (3 h) was 4.8 meq/L and the LDH (3 h) was 84 IU/L. The Na (3 h) was 137.8 meq/L, the PL (3 h) was 148 mg/dL and the RALB (3 h) was 3.9 g/dL. The TBIL (3 h) was 0.3 mg/dL, the TC (3 h) was 88.8 mg/dL and the TG (3 h) was 40 mg/dL. It also gave a TP (3 h) of 5.6 g/dL, a gamma-GTP (3 h) of 2.4 IU/L and a TERMINAL_BW (6 h) of 197 g. For the same molecule, the APTT (6 h) was 16.5 s, the Bas (6 h) was 0% and the Eos (6 h) was 0.8%. It also gave a Fbg (6 h) of 220.8 mg/dL, a Hb (6 h) of 13 g/dL and a Lym (6 h) of 75.4%. It also gave an MCH (6 h) of 21.5 pg, an MCHC (6 h) of 33% and an MCV (6 h) of 65.3 fL. The Mono (6 h) was 8.6%, the Neu (6 h) was 15.6% and the PT (6 h) was 12.4 s. It also gave a Plat (6 h) of 113.3 x10_4/uL, an RBC (6 h) of 606.4 x10_4/ul and a Ret (6 h) of 8.7%. The WBC (6 h) was 86.8 x10_2/uL, the KIDNEY_L (6 h) was 0.9 g and the KIDNEY_R (6 h) was 0.9 g. The KIDNEY_TOTAL (6 h) was 1.8 g, the LIVER (6 h) was 8.5 g and the ALP (6 h) was 708.4 IU/L. It also gave an ALT (6 h) of 32.4 IU/L, an AST (6 h) of 57.2 IU/L and a BUN (6 h) of 10.2 mg/dL. For the same molecule, the CRE (6 h) was 0.5 mg/dL, the Ca (6 h) was 10.2 mg/dL and the Cl (6 h) was 105.8 meq/L. For the same molecule, the DBIL (6 h) was 0.002 mg/dL, the GLC (6 h) was 184.2 mg/dL and the IP (6 h) was 10.2 mg/dL. It also gave a K (6 h) of 4.8 meq/L, an LDH (6 h) of 84.8 IU/L and a Na (6 h) of 136.8 meq/L. For the same molecule, the PL (6 h) was 150.6 mg/dL, the RALB (6 h) was 3.7 g/dL and the TBIL (6 h) was 0.4 mg/dL. It also gave a TC (6 h) of 92.4 mg/dL, a TG (6 h) of 33.6 mg/dL and a TP (6 h) of 5.3 g/dL. The gamma-GTP (6 h) was 2.2 IU/L, the TERMINAL_BW (9 h) was 192.1 g and the APTT (9 h) was 16.7 s. It also gave a Bas (9 h) of 0%, an Eos (9 h) of 0.6% and a Fbg (9 h) of 223 mg/dL. For the same molecule, the Hb (9 h) was 13.1 g/dL, the Lym (9 h) was 74.2% and the MCH (9 h) was 21.6 pg. The MCHC (9 h) was 33%, the MCV (9 h) was 65.5 fL and the Mono (9 h) was 6.6%. For the same molecule, the Neu (9 h) was 19%, the PT (9 h) was 12.3 s and the Plat (9 h) was 113.3 x10_4/uL. For the same molecule, the RBC (9 h) was 609.2 x10_4/ul, the Ret (9 h) was 7.9% and the WBC (9 h) was 62.2 x10_2/uL. The KIDNEY_L (9 h) was 0.9 g, the KIDNEY_R (9 h) was 0.9 g and the KIDNEY_TOTAL (9 h) was 1.8 g. The LIVER (9 h) was 8.1 g, the ALP (9 h) was 829.8 IU/L and the ALT (9 h) was 27.4 IU/L. The AST (9 h) was 54.4 IU/L, the BUN (9 h) was 9 mg/dL and the CRE (9 h) was 0.5 mg/dL. For the same molecule, the Ca (9 h) was 9.9 mg/dL, the Cl (9 h) was 104.4 meq/L and the DBIL (9 h) was 0.022 mg/dL. It also gave a GLC (9 h) of 176.8 mg/dL, an IP (9 h) of 10 mg/dL and a K (9 h) of 4.5 meq/L. It also gave an LDH (9 h) of 81.6 IU/L, a Na (9 h) of 137.2 meq/L and a PL (9 h) of 135.4 mg/dL. It also gave an RALB (9 h) of 3.6 g/dL, a TBIL (9 h) of 0.3 mg/dL and a TC (9 h) of 79.4 mg/dL. The TG (9 h) was 33.2 mg/dL, the TP (9 h) was 5.3 g/dL and the gamma-GTP (9 h) was 2.2 IU/L. For the same molecule, the TERMINAL_BW (24 h) was 213 g, the APTT (24 h) was 17 s and the Bas (24 h) was 0%. The Eos (24 h) was 0.8%, the Fbg (24 h) was 209.8 mg/dL and the Hb (24 h) was 13.1 g/dL. The Lym (24 h) was 86.2%, the MCH (24 h) was 21.7 pg and the MCHC (24 h) was 33.2%. The MCV (24 h) was 65.4 fL, the Mono (24 h) was 4% and the Neu (24 h) was 9.2%. It also gave a PT (24 h) of 12.2 s, a Plat (24 h) of 117 x10_4/uL and an RBC (24 h) of 605.6 x10_4/ul. It also gave a Ret (24 h) of 7.7%, a WBC (24 h) of 112.3 x10_2/uL and a KIDNEY_L (24 h) of 0.9 g. It also gave a KIDNEY_R (24 h) of 0.9 g, a KIDNEY_TOTAL (24 h) of 1.9 g and an LIVER (24 h) of 10.8 g. The ALP (24 h) was 934.6 IU/L, the ALT (24 h) was 32.6 IU/L and the AST (24 h) was 56.6 IU/L. For the same molecule, the BUN (24 h) was 22.2 mg/dL, the CRE (24 h) was 0.5 mg/dL and the Ca (24 h) was 11 mg/dL. For the same molecule, the Cl (24 h) was 104.2 meq/L, the DBIL (24 h) was 0.014 mg/dL and the GLC (24 h) was 178.8 mg/dL. It also gave an IP (24 h) of 7.5 mg/dL, a K (24 h) of 5.1 meq/L and an LDH (24 h) of 92.8 IU/L. For the same molecule, the Na (24 h) was 136.6 meq/L, the PL (24 h) was 166.6 mg/dL and the RALB (24 h) was 4.1 g/dL. The TBIL (24 h) was 0.3 mg/dL, the TC (24 h) was 82.6 mg/dL and the TG (24 h) was 139.2 mg/dL. It also gave a TP (24 h) of 6 g/dL and a gamma-GTP (24 h) of 1.6 IU/L.
